According to patent US4415566A, “Cephalosporin derivatives” (Boehringer Ingelheim GmbH, priority 1979, dated 1983):
Values after ≈ are worked out from the molar mass of the structure shown. Read-outs that look alike come from different tables or passages of the source.

Assays:
[1] = tested on: Staphylococcus aureus SG 511; assay: Serial dilution test in the microtiter system (MIC), S. aureus SG 511; format: cell-based; settings: SG511, Table IV, S. aureus SG 511, 37° C., 18-20 hours, read-out: MIC
Experimental: (§1) These tests were performed according to the method of the serial dilution test in the microtiter system. The effect of the substances on bacteriostasis was examined in a fluid medium. […] A nutrient medium of the following composition was used. 10 gm of peptone, 8 gm of meat extract-oxoid, 3 gm of sodium chloride, 2 gm of sec. sodium phosphate were diluted with distilled water to […] (pH 7.2-7.4). Only in the test against streptococci 1% of glucose was added. The age of the primary cultures was about 20 hours. The standardization of the pathogen suspension was effected by using a photometer according to "Eppendorf" (test tube dismeter 14 mm, filter 546 nm) with the aid of the turbidity of a comparison suspension consisting of barium sulfate, this suspension being prepared by addition of 3.0 ml of 1% barium chloride solution to 97 ml of 1% sulfuric acid. After the standardization, streptococcus aronson were further diluted to a concentration of 1:15 and the other microorganisms to a concentration of 1:1500 by means of a sodium chloride solution.
(§2) 16 mg of the test substance were put into a 10 ml-measuring flask and filled up to the mark with the solvent. The further dilution series was standardized with distilled water or the respective solvent.
(§3) The cavities of the microtiter plates were filled with 0.2 ml of nutrient medium. Then, 0.01 ml of the corresponding test substance dilution was added and inoculated with 0.01 ml of the standardized suspension. The bacteria were incubated at 37° C. for 18-20 hours. Control tests merely using the solvent were carried out simultaneously.
(§4) The measurement was carried out macroscopically to determine the minimal inhibitory (threshold) concentration, i.e. the lower still bacteriostatically effective concentration.
(§5) Staphylococcus aureus SG 511, Escherichia coli ATCC 11 775, Pseudomonas aeruginosa Hamburgensis and Pseudomonas aeruginosa Walter, Serratia marcescens ATCC 13880, Klebsiella pneumoniae ATCC 10 031 and 272, Proteus mirabilis Hamburgensis, Proteus rettgeri, Enterbacter cloaceae ATCC 13 047 and E. Coli R+TEM (β-lactamase carrier).

Proteus rettgeri = assay: Serial dilution test in the microtiter system (MIC), Prot. rettgeri; format: cell-based; settings: Providencia rettgeri, 37° C., 18-20 hours, read-out: MIC
Experimental: as §1, §2, §3, §4, §5

[2] = tested on: Enterbacter cloaceae ATCC 13 047; assay: Serial dilution test in the microtiter system (MIC), Eb. cloaceae ATCC 13047; format: cell-based
Experimental: as §1, §2, §3, §4, §5

[3] = tested on: Proteus mirabilis Hamburgensis; assay: Serial dilution test in the microtiter system (MIC), Prot. mirabilis; format: cell-based; settings: 37° C., 18-20 hours, read-out: MIC
Experimental: as §1, §2, §3, §4, §5

[4] = tested on: Escherichia coli ATCC 11 775; assay: Serial dilution test in the microtiter system (MIC), E. Coli ATCC 11775; format: cell-based; settings: E. Coli ATCC 11775, 37° C., 18-20 hours, read-out: MIC
Experimental: as §1, §2, §3, §4, §5

[5] = tested on: Serratia marcescens ATCC 13880; assay: Serial dilution test in the microtiter system (MIC), Serrat. marcesc. ATCC 13880; format: cell-based; settings: 18-20 hours, read-out: MIC
Experimental: as §1, §2, §3, §4, §5

[6] = tested on: Klebsiella pneumoniae ATCC 10 031; assay: Serial dilution test in the microtiter system (MIC), Klebs. pneum. ATCC 10031; format: cell-based
Experimental: as §1, §2, §3, §4, §5

[7] = tested on: Pseudomonas aeruginosa Hamburgensis; assay: Serial dilution test in the microtiter system (MIC), Pseud. aerug. Hbg.; format: cell-based
Experimental: as §1, §2, §3, §4, §5

[8] = tested on: Pseudomonas aeruginosa Walter; assay: Serial dilution test in the microtiter system (MIC), Pseud. aerug. Walter; format: cell-based
Experimental: as §1, §2, §3, §4, §5

[9] = tested on: Klebsiella pneumoniae 272; assay: Serial dilution test in the microtiter system (MIC), Klebs. pneum. 272; format: cell-based
Experimental: as §1, §2, §3, §4, §5

E. Coli ATCC 9637 = assay: Serial dilution test in the microtiter system (MIC), E. Coli ATCC 9637; format: cell-based; settings: Escherichia coli, ATCC9637
E. coli ATCC 11775 = assay: In vivo activity in mice, E. coli infection; set-up: species or system Female NMRI mice; settings: Escherichia coli, ATCC11775, iPSC, sc, 168 h; E. coli infection i.p.; s.c. administration; per dose; observation 7 days; read-out: ED50 (dose at which 50% of the animals survived)
Experimental: (§6) A number of compounds of this invention were tested in vivo in mice against experimental infections. Bacteria E. coli ATCC 11775 and Psuedomonas aeruginosa Walter were used as pathogens. An intraperitoneal infection with 0.2 ml of a 5% suspension of the bacteria was induced. This corresponds to about 2×10^6 E. Coli germs and 8×10^5 pseudomonas germs/mouse. […] The groups with E. coli infection were treated with the test compound three times on the first day (1, 4, and 7 hours post infectionem) and for two days thereafter twice a day. The groups with the pseudomonas infection were treated with the test compound 6 times on the first day (1, 3, 6, 9, 12 and 15 hours post infectionem) and for two days thereafter twice a day. The observation time was in both cases 7 days. The results of these tests with representatives of the penicillins and cephalosporins according to the invention are shown in the following table: […]

[10] = tested on: Psuedomonas aeruginosa Walter; assay: In vivo activity in mice, Pseudomonas infection; set-up: species or system Female NMRI mice; settings: Mus musculus, iPSC, sc, 168 h; Pseudomonas infection i.p.; s.c. administration; per dose; observation 7 days; read-out: ED50 (dose at which 50% of the animals survived)
Experimental: as §6

[11] = ATCC13880, Table IV, Serr. marcesc. ATCC 13880, 37° C.
[12] = ATCC13880, Table III, Serrat. marcesc. ATCC 13880, 37° C.
[13] = Table III, Pseud. aerug. Walter, 37° C., 18-20 hours, read-out: MIC

Row | SMILES | MIC (Proteus rettgeri; Table IV, Prot. rettg.) | MIC ([3]; Table IV, Prot. mir. Hbg.) | MIC [5, 11] | MIC [7] | MIC [8] | MIC (Proteus rettgeri; Table III, Prot. rettgeri) | MIC [2] | MIC ([3]; Table III, Prot. mirabilis) | MIC ([4]; Table III) | MIC [5, 12] | MIC [6] | MIC [8, 13] | MIC [9]; 272 | MIC (E. Coli ATCC 9637) | ED50 (E. coli ATCC 11775) | other results
1 | Cn1nnnc1SCC1=C(C(=O)O)N2C(=O)[C@@H](NC(=O)[C@H](NC(=O)Nc3cnc(Nc4ccc([S+](C)[O-])nc4)nc3O)c3ccc(O)cc3)[C@H]2SC1 (some centres unmarked) [O] | 0.5 µg/mL (≈ 0.65 µM) | 0.12 µg/mL (≈ 0.156 µM) | 0.5 µg/mL (≈ 0.65 µM) | 4 µg/mL (≈ 5.2 µM) | 4 µg/mL (≈ 5.2 µM) |  |  |  |  |  |  |  |  |  |  | MIC [1]: 0.25 µg/mL (≈ 0.325 µM); MIC ([2]; Table IV, Eb. cloaceae, 37° C., 18-20 hours, read-out: MIC): 0.5 µg/mL (≈ 0.65 µM); MIC ([4]; Table IV): 0.25 µg/mL (≈ 0.325 µM); MIC ([6]; Table IV, Klebs. pneum. ATCC 10031, 37° C., 18-20 hours, read-out: MIC): 0.25 µg/mL (≈ 0.325 µM); MIC ([9]; Table IV, Klebs. pneum. 272, 37° C., 18-20 hours, read-out: MIC): 0.25 µg/mL (≈ 0.325 µM)
2 | CC1(C)S[C@@H]2[C@H](NC(=O)[C@H](NC(=O)Nc3cnc(Nc4ccc(O)nc4)nc3O)c3ccc(O)cc3)C(=O)N2[C@H]1C(=O)O [G, D-α-{3-[4-Hydroxy-2-(6'-hydroxy-3'-pyridylamino)-5-pyrimidinyl]-ureido}-p-hydroxy-benzyl-penicillin sodium] |  |  |  |  |  | 0.5 µg/mL | 4 µg/mL | 0.01 µg/mL | 0.2 µg/mL | 0.1 µg/mL | 4 µg/mL | 0.5 µg/mL | 4 µg/mL |  |  | MIC (E. Coli ATCC 9637; Table III, E. Coli ATCC 9637, 37° C., 18-20 hours, read-out: MIC): 0.2 µg/mL; MIC ([7]; Table III, Pseud. aerug. Hbg., 37° C., 18-20 hours, read-out: MIC): 0.5 µg/mL
3 | Cc1ncc(CNc2ncc(NC(=O)N[C@@H](C(=O)N[C@@H]3C(=O)N4[C@@H]3SC(C)(C)[C@@H]4C(=O)O)c3ccc(O)cc3)c(O)n2)cn1 [F, D-α-{3-[4-Hydroxy-2-(2'-methyl-5'-pyrimidinylmethylamino)-5-pyrimidinyl]-ureido}-p-hydroxy-benzyl-penicillin sodium] |  |  |  |  |  | 0.5 µg/mL | 4 µg/mL | 0.06 µg/mL | 0.5 µg/mL | 0.5 µg/mL | 8 µg/mL | 1 µg/mL | 8 µg/mL | 0.5 µg/mL |  | 
4 | Cn1nnnc1SCC1=C(C(=O)O)N2C(=O)[C@@H](NC(=O)C(NC(=O)Nc3cnc(NCc4ccco4)nc3O)c3cccs3)[C@H]2SC1 (single isomer, unassigned) [M] | 0.5 µg/mL (≈ 0.715 µM) | 0.12 µg/mL (≈ 0.171 µM) | 0.5 µg/mL (≈ 0.715 µM) | 8 µg/mL (≈ 11.4 µM) | 4 µg/mL (≈ 5.72 µM) |  |  |  |  |  |  |  | 0.5 µg/mL (≈ 0.715 µM) |  | 0.8 mg/kg | 
5 | CC1(C)S[C@@H]2[C@H](NC(=O)[C@H](NC(=O)Nc3cnc(NCc4cccnc4)nc3O)c3ccc(O)cc3)C(=O)N2[C@H]1C(=O)O [A, D-α-{3-[4-Hydroxy-2-(3'-pyridylmethylamino)-5-pyrimidinyl]-ureido}-p-hydroxy-benzyl-penicillin sodium] |  |  |  |  |  | 1 µg/mL | 4 µg/mL | 0.12 µg/mL | 0.5 µg/mL | 0.5 µg/mL | 8 µg/mL | 1 µg/mL | 8 µg/mL | 0.5 µg/mL | 0.7 mg/kg | ED50 [10]: 1.2 mg/kg
